Usually GI50 stands for the concentration that inhibits growth by half.

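Step 1: Grow cells in 96-well plates. Step 2: Expose to compound for 48 hours at 5 concentrations. Step 3: Interpolate endpoints linearly; if unreached, use highest concentration. Here, GI50 denotes the concentration required for 50% inhibition of growth.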 The source made the active and inactive calls. Rule as the data show it: active = GI50 up to about 1.1 µM and inactive = higher. Bounds are passed on as bounds.

Common to all, as to experiment: DTP human tumour cell line panel, 48 h
Assay [1] has as its system KM-20L2.
The test system of assay [2] is LXFL 529.
In assay [3] the test system is SNB-78.
Assay [4] concerns M19-MEL.
In assay [5] the test system is DMS-114.
Assay [6] relates to DMS-273.
Assay [7] concerns XF498.
The test system of assay [8] is HOP-18.
For assay [9], the system named is RXF 631.

With `O=C1CCCc2ccc([N+](=O)[O-])c(O)c21`, the GI50 in assay [1] is > 100 µM (inactive); in [2], > 100 µM (inactive); in [3] it was > 100 µM (inactive); in assay [4] it was > 100 µM (inactive); in assay [5], 66.1 µM (inactive); in assay [6], > 100 µM (inactive).

As for `Cc1cc(NS(=O)(=O)c2ccc(Nc3c4ccccc4nc4c(C(=O)Nc5ccc(S(N)(=O)=O)cc5)cccc34)cc2)no1`, the GI50 in assay [1] is > 100 µM (inactive); in assay [7], 20.9 µM (inactive); in assay [2], 21.1 µM (inactive); in [3], 23.9 µM (inactive); in [4], 25.1 µM (inactive); in assay [8], > 100 µM (inactive). In addition, the GI50 in [5] was 28.5 µM (inactive); in [6], > 100 µM (inactive).

In the case of `COc1ccc(C=O)c(N(C)C(=O)C(C)(C)C)c1`, the GI50 in [1] was > 100 µM (inactive); in assay [7], 17.1 µM (inactive); in [3] it was > 100 µM (inactive); in [4], > 100 µM (inactive); in assay [8], > 100 µM (inactive); in assay [5], > 100 µM (inactive). For the same compound, the GI50 in assay [6] and in assay [9] was > 100 µM (inactive) throughout.

With `C/C(CC(=O)Nc1cccc(C)c1C)=N\NC(N)=S`, the GI50 in assay [1], in assay [7], in assay [2], in assay [3], in [4] and in [8] was > 100 µM (inactive) throughout. Moreover, the results for the GI50 in assay [5], in assay [6] and in [9] were 41.7 µM (inactive), > 100 µM (inactive) and 91.2 µM (inactive), respectively.

In the case of `CNC(=O)OCc1nc(SSC(C)(C)C)n(C)c1COC(=O)NC`, the GI50 was 12.8 µM (inactive) in assay [1]; 2.32 µM (inactive) in assay [7]; 1.24 µM (inactive) in assay [2]; 7.83 µM (inactive) in assay [3]; 3.32 µM (inactive) in assay [4]; 5.18 µM (inactive) in [8]. For the same compound, the GI50 was 1.72 µM (inactive) in [5], 5.97 µM (inactive) in [6] and 1.73 µM (inactive) in assay [9].

`NNC(=O)/C(=C/c1ccc(Cl)c(Cl)c1)NC(=O)c1ccccc1`: the GI50 was > 100 µM (inactive) in assay [1]; > 100 µM (inactive) in [7]; > 100 µM (inactive) in assay [2]; > 100 µM (inactive) in [3]; > 100 µM (inactive) in assay [4]; 61.8 µM (inactive) in [5]. Moreover, the GI50 in [9] is > 100 µM (inactive).

Consider `C[N+](C)(C)CC1CCCC/C1=N\OC(=O)c1ccccc1` (configuration not stated), for which the GI50 in assay [1], in [2], in assay [3], in [4], in [8] and in [5] was > 100 µM (inactive) in each case. Moreover, the GI50 in assay [6] and in [9] was > 100 µM (inactive) throughout.

With `COC(=O)/C1=C/C2CC(/C=C(/c3ccccc3)C(=O)O1)C2`, the GI50 is 22 µM (inactive) in [7]; 23.1 µM (inactive) in [4]; 27.5 µM (inactive) in assay [8]; 19 µM (inactive) in assay [5]; 21.5 µM (inactive) in assay [6].

Consider `COc1nc(=O)cc(N)n1C1OC(CO)C(O)C1O` (configuration not stated), for which the GI50 in assay [1], in [2], in assay [3], in assay [4], in assay [5] and in assay [6] was > 100 µM (inactive) throughout.

As for `c1ccc2c(c1)c1ccccc1c1n[se]nc21`, the GI50 in [1] was > 100 µM (inactive); in assay [7], 31.5 µM (inactive); in assay [2], 21.8 µM (inactive); in [3] it was > 100 µM (inactive); in [8], < 0.01 µM (active); in [5], > 100 µM (inactive). In addition, the results for the GI50 in assay [6] and in [9] were > 100 µM (inactive) and 89.7 µM (inactive), respectively.

Take `O=C(CSc1nc(-c2ccccc2)c(-c2ccccc2)[nH]1)N/N=C/c1ccc(O)cc1`: the GI50 in assay [1] is 24.5 µM (inactive); in [7], 28.5 µM (inactive); in assay [2], 30.5 µM (inactive); in assay [3] it was 37.9 µM (inactive); in [4] it was 19.4 µM (inactive); in assay [8], 12.2 µM (inactive). Besides, the GI50 in assay [5] is 22.1 µM (inactive); in assay [6], 18.3 µM (inactive).

In the case of `C=C(c1ccccc1N)[C@@]1(O)C[C@H](/C(=C\C)CO)C[C@@H]1NCc1ccccc1`, the GI50 in [1] was 17.3 µM (inactive); in assay [3] it was 25.2 µM (inactive); in assay [4], 23.6 µM (inactive); in [8], 20.4 µM (inactive); in assay [5] it was 17 µM (inactive); in [6], 28.6 µM (inactive).

As to `Cc1cc(NS(=O)(=O)c2ccc(NC(=O)c3cccc4c(N)c5ccccc5nc34)cc2)no1`, the GI50 in assay [1] is 34.1 µM (inactive); in assay [7], 21.8 µM (inactive); in assay [2] it was 32 µM (inactive); in assay [3], 27.5 µM (inactive); in [4] it was 21.2 µM (inactive); in assay [5] it was 22.2 µM (inactive). The GI50 was 19.2 µM (inactive) in [6] and 18.4 µM (inactive) in [9].

Take `CC(/C=C1\CCC(CN(C)C)C1=O)c1cccc(Br)c1` (configuration not stated): the GI50 is 21.4 µM (inactive) in [1]; 20.6 µM (inactive) in assay [7]; 5.62 µM (inactive) in assay [2]; 16.4 µM (inactive) in assay [3]; 20.7 µM (inactive) in [4]; 18.7 µM (inactive) in [8]. The GI50 was 19.7 µM (inactive) in assay [5] and 7.91 µM (inactive) in assay [9].

As to `S=P(c1ccccc1)(c1ccccc1)C1(C2(P(=S)(c3ccccc3)c3ccccc3)CC2)CC1`, the GI50 in assay [1], in assay [7], in assay [2], in assay [3], in assay [4] and in [5] was > 100 µM (inactive) in each case. Further, the GI50 in [6] and in [9] was > 100 µM (inactive) each time.

For `CC(C)(C)C1CCC2c3c([nH]c4ccccc34)C3C(=O)N(c4ccc(Br)cc4)C(=O)C3C2C1` (configuration not stated), the GI50 in [1] was 15.1 µM (inactive); in assay [7] it was 38.4 µM (inactive); in assay [2], 21.7 µM (inactive); in [3], 26.4 µM (inactive); in assay [4], 16.8 µM (inactive); in [8], 52.4 µM (inactive). Also, the GI50 was 19 µM (inactive) in [5] and 17.1 µM (inactive) in [6].

On to `C#CCN(N=O)C(=O)NCCCCC(NC(=O)OCc1ccccc1)C(=O)OCc1ccccc1` (configuration not stated), for which the GI50 in assay [1] was > 100 µM (inactive); in assay [7] it was 29.9 µM (inactive); in [2] it was 19.1 µM (inactive); in [3] it was 46.2 µM (inactive); in assay [4], 23.3 µM (inactive); in assay [8], > 100 µM (inactive). Moreover, the GI50 in [6] was 84.3 µM (inactive).

With `Cc1cccc(C(C)(C)C)c1NC(=O)C(=O)Cc1nc2ccccc2s1`, the GI50 in [1], in assay [2], in assay [3], in assay [4], in assay [8] and in assay [5] was > 100 µM (inactive) in each case. For the same compound, the GI50 in [6] and in [9] was > 100 µM (inactive) each time.

Turning to `CC(C)c1ccc(C2C3=C(N=C4SCC(=O)N42)C(=O)c2ccccc23)cc1` (configuration not stated), the GI50 is > 100 µM (inactive) in [1]; 87.3 µM (inactive) in assay [7]; 52.4 µM (inactive) in [2]; 83.4 µM (inactive) in assay [4]; 53.5 µM (inactive) in assay [5]; > 100 µM (inactive) in [6]. In addition, the GI50 in assay [9] was > 100 µM (inactive).

With `Sc1nnc(/C=C/c2ccc(Cl)c(Cl)c2)[nH]1`, the GI50 in assay [1] was > 100 µM (inactive); in assay [7] it was 30.9 µM (inactive); in [5] it was 0.0298 µM (active); in [6], > 100 µM (inactive).

As for `CC1OC(n2cc(Cl)c(=O)[nH]c2=O)C=C(OC(=O)c2ccccc2)C1=O` (configuration not stated), the GI50 in assay [1], in assay [7], in [3], in [4], in assay [8] and in assay [5] was > 100 µM (inactive) in each case. For the same compound, the GI50 in [6] and in assay [9] was > 100 µM (inactive) throughout.

`Cc1noc2cccc(O)c12`: the GI50 in assay [1], in [7], in assay [2], in assay [3], in [4] and in assay [8] was > 100 µM (inactive) throughout. In addition, the GI50 in assay [5] and in [6] was > 100 µM (inactive) each time.

`CC(C)=CC(=O)Oc1ccc([N+](=O)[O-])cc1`: the GI50 in [1], in assay [7], in assay [2], in [3], in assay [4] and in assay [8] was > 100 µM (inactive) in each case. In addition, the GI50 in assay [5] and in assay [6] was > 100 µM (inactive) throughout.

Take `O=S(=O)(/C=C/C(=C/c1ccccc1)S(=O)(=O)c1ccccc1)c1ccccc1`: the GI50 was 1.7 µM (inactive) in assay [7]; 1.7 µM (inactive) in assay [2]; 1.57 µM (inactive) in assay [5]; 1.52 µM (inactive) in assay [6]; 1.07 µM (active) in assay [9].

For the compound `NS(=O)(=O)c1cc2c(cc1Cl)NC(/C(=N/NC(=O)c1ccncc1)C1C(=O)NC(=O)NC1=O)=NS2(=O)=O`, the GI50 in assay [1], in assay [2], in assay [3], in assay [4], in [5] and in [6] was > 100 µM (inactive) each time. Besides, the GI50 in assay [9] was > 100 µM (inactive).

Source of the values: ChEMBL document CHEMBL1201862, “PubChem BioAssay data set” (2004).
